Assay results taken from PubChem BioAssay AID330 (DTP/NCI, 2004).
“And” between values parts separate entries of the source, which are not always exact repeats. Equal values may be shown once. Toxic doses and inconclusive results are not listed. How the source made its calls: active means survival T/C of 150% or more; inactive means T/C below 125% in these data.

System: P388 leukemia ip, CD2F1 mice, survival T/C
Experiment: NCI In Vivo Anticancer Drug Screen. Data for tumor model P388 Leukemia (intraperitoneal) in CD2F1 (CDF1) mice
Settings: endpoint: median survival time, higher = longer survival
Procedure, shortened: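 Mice carrying the transplanted tumor received test compound or vehicle. Survival was recorded in each group, and the value is the treated-group measurement divided by that of the vehicle-treated control group.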

[1] = dose: 50.0 mg/kg/injection, schedule: Q01DX009 (ip), vehicle: saline with Tween-80
[2] = dose: 100.0 mg/kg/injection, schedule: Q01DX009 (ip), vehicle: saline with Tween-80
[3] = dose: 200.0 mg/kg/injection, schedule: Q01DX009 (ip), vehicle: saline with Tween-80
[4] = dose: 100.0 mg/kg/injection, schedule: Q01DX001 (ip), vehicle: Klucel (hydroxypropylcellulose) (HPC)
[5] = dose: 200.0 mg/kg/injection, schedule: Q01DX001 (ip), vehicle: Klucel (hydroxypropylcellulose) (HPC)
[6] = dose: 400.0 mg/kg/injection, schedule: Q01DX001 (ip), vehicle: Klucel (hydroxypropylcellulose) (HPC)
[7] = dose: 100.0 mg/kg/injection, schedule: Q01DX009 (ip), vehicle: Klucel (hydroxypropylcellulose) (HPC)
[8] = dose: 200.0 mg/kg/injection, schedule: Q01DX009 (ip), vehicle: Klucel (hydroxypropylcellulose) (HPC)
[9] = dose: 400.0 mg/kg/injection, schedule: Q01DX009 (ip), vehicle: Klucel (hydroxypropylcellulose) (HPC)
[10] = dose: 50.0 mg/kg/injection, schedule: Q01DX005 (ip), vehicle: Klucel (hydroxypropylcellulose) (HPC)
[11] = dose: 100.0 mg/kg/injection, schedule: Q01DX005 (ip), vehicle: Klucel (hydroxypropylcellulose) (HPC)
[12] = dose: 200.0 mg/kg/injection, schedule: Q01DX005 (ip), vehicle: Klucel (hydroxypropylcellulose) (HPC)
[13] = dose: 50.0 mg/kg/injection, schedule: Q01DX005 (ip), vehicle: saline with Tween-80
[14] = dose: 100.0 mg/kg/injection, schedule: Q01DX005 (ip), vehicle: saline with Tween-80
[15] = dose: 200.0 mg/kg/injection, schedule: Q01DX005 (ip), vehicle: saline with Tween-80
[16] = dose: 50.0 mg/kg/injection, schedule: Q01DX009 (ip), vehicle: Klucel (hydroxypropylcellulose) (HPC)

Measured: T/C

CCOC1OCN(CCc2ccccc2)CC1(C)C (configuration not stated)
inactive: [1] 108 % of control | [2] 119 % of control | [3] 118 % of control

COC1=CC(=O)C(C(C)=O)=C(C#N)C1=O
inactive: dose: 100.0 mg/kg/injection, schedule: Q04DX002 (ip), vehicle: saline with Tween-80 100 % of control | dose: 200.0 mg/kg/injection, schedule: Q04DX002 (ip), vehicle: saline with Tween-80 100 % of control | dose: 400.0 mg/kg/injection, schedule: Q04DX002 (ip), vehicle: saline with Tween-80 90 % of control

CC1=NN(C(=O)c2ccncc2)C(=O)C1N=Nc1ccc([N+](=O)[O-])cc1Cl (configuration not stated)
inactive: [1] 99 % of control | [2] 96 % of control | [3] 104 % of control

O=C(Nc1ccc(S(=O)(=O)F)cc1)/C(=C/c1cccc([N+](=O)[O-])c1)c1ccccc1
inactive: dose: 60.0 mg/kg/injection, schedule: Q01DX005 (ip), vehicle: Klucel (hydroxypropylcellulose) (HPC) 102 % of control | dose: 120.0 mg/kg/injection, schedule: Q01DX005 (ip), vehicle: Klucel (hydroxypropylcellulose) (HPC) 98 % of control | dose: 240.0 mg/kg/injection, schedule: Q01DX005 (ip), vehicle: Klucel (hydroxypropylcellulose) (HPC) 94 % of control

CCOC(=O)c1c(N)sc2c1CCC2
inactive: dose: 100.0 mg/kg/injection, schedule: Q01DX001 (ip), vehicle: saline sonified 100 % of control | dose: 200.0 mg/kg/injection, schedule: Q01DX001 (ip), vehicle: saline sonified 95 % of control | dose: 400.0 mg/kg/injection, schedule: Q01DX001 (ip), vehicle: saline sonified 100 % of control

COc1ccc(NC(=O)CCCC(=O)CC(=O)c2ccc(Cl)cc2)c(OC)c1
inactive: dose: 60.0 mg/kg/injection, schedule: Q01DX005 (ip), vehicle: saline with Tween-80 109 % of control | dose: 120.0 mg/kg/injection, schedule: Q01DX005 (ip), vehicle: saline with Tween-80 103 % of control | dose: 240.0 mg/kg/injection, schedule: Q01DX005 (ip), vehicle: saline with Tween-80 101 % of control

COCOc1cc(OCc2ccccc2)ccc1C(=O)/C=C/c1cc2c(cc1OCc1ccccc1)OCO2
inactive: [4] 105 % of control | [5] 102 % of control | [6] 105 % of control

O=c1[nH]cc(N=Cc2ccccc2F)c(=O)[nH]1
inactive: dose: 50.0 mg/kg/injection, schedule: Q01DX009 (ip), vehicle: suspension in saline 92 % of control | dose: 100.0 mg/kg/injection, schedule: Q01DX009 (ip), vehicle: suspension in saline 100 % of control | dose: 200.0 mg/kg/injection, schedule: Q01DX009 (ip), vehicle: suspension in saline 96 % of control

S=C(N\N=C/C(/C=C/c1ccccc1)=N\NC(=S)Nc1ccc(Br)cc1)Nc1ccc(Br)cc1
inactive: dose: 100.0 mg/kg/injection, schedule: Q04DX002 (ip), vehicle: Klucel (hydroxypropylcellulose) (HPC) 106 % of control | dose: 200.0 mg/kg/injection, schedule: Q04DX002 (ip), vehicle: Klucel (hydroxypropylcellulose) (HPC) 97 % of control | dose: 400.0 mg/kg/injection, schedule: Q04DX002 (ip), vehicle: Klucel (hydroxypropylcellulose) (HPC) 95 % of control

O=c1oc(-c2ccccc2I)ns1
inactive: [7] 113 % of control | [8] 114 % of control | [9] 96 % of control

CCn1c(Cl)c(/C=N/Nc2ccccc2[N+](=O)[O-])c2cccc(/C=N\Nc3ccccc3[N+](=O)[O-])c21
inactive: [4] 91 % of control | [5] 90 % of control | [6] 87 % of control

N[C@H]1CN([C@@H](C(=O)O)c2ccc(O)cc2)C1=O
inactive: [10] 105 % of control | [11] 105 % of control | [12] 103 % of control | dose: 400.0 mg/kg/injection, schedule: Q01DX005 (ip), vehicle: Klucel (hydroxypropylcellulose) (HPC) 99 % of control

CC(C)N1C(=O)N(Cl)C2C1N(Cl)C(=O)N2Cl (configuration not stated)
inactive: dose: 25.0 mg/kg/injection, schedule: Q01DX005 (ip), vehicle: saline with Tween-80 99 % of control | [13] 108 % of control and 122 % of control | [14] 122 % of control | [15] 113 % of control and 117 % of control

O=C(CC(c1ccccc1)C1c2ccccc2C(=O)c2ccccc21)c1ccccc1 (configuration not stated)
inactive: [16] 87 % of control | [7] 93 % of control | [8] 92 % of control | [9] 88 % of control

CC(NC(=O)C(c1ccccc1)c1ccccc1)C(=O)O (configuration not stated)
inactive: [10] 97 % of control | [11] 107 % of control | [12] 97 % of control

CC[C@]1(O)CC(OC2CC(N(C)C)C(O)C(C)O2)c2c(cc3c(c2O)C(=O)c2c(O)cccc2C3=O)[C@@H]1C(=O)OC (some centres not stated)
inactive: [10] 95 % of control | [11] 96 % of control | [12] 97 % of control

CCCCCCCCCCCC(=O)N(CCOC(=O)c1ccco1)CCOC(=O)c1ccco1
inactive: [1] 108 % of control | [2] 91 % of control | [3] 87 % of control

COC(=O)CCC(NC(=O)C(CCCCN)N(C(=O)OCc1ccccc1)C(=O)OCc1ccccc1)C(=O)OC (configuration not stated)
inactive: [13] 101 % of control | [14] 101 % of control | [15] 98 % of control

CCN(CC)CCNc1cc2c(c3c(=O)c4ccccc4sc13)CCCC2
inactive: dose: 7.8 mg/kg/injection, schedule: Q01DX005 (ip), vehicle: other 101 % of control | dose: 15.6 mg/kg/injection, schedule: Q01DX005 (ip), vehicle: other 113 % of control | dose: 31.3 mg/kg/injection, schedule: Q01DX005 (ip), vehicle: other 104 % of control | dose: 62.5 mg/kg/injection, schedule: Q01DX005 (ip), vehicle: other 113 % of control | dose: 125.0 mg/kg/injection, schedule: Q01DX005 (ip), vehicle: other 101 % of control

CNC(=O)OCc1nn(-c2ccc(Cl)cc2)c(C)c1COC(=O)NC
inactive: dose: 1.56 mg/kg/injection, schedule: Q01DX009 (ip), vehicle: distilled water + Tween-80 103 % of control | dose: 3.12 mg/kg/injection, schedule: Q01DX009 (ip), vehicle: distilled water + Tween-80 100 % of control | dose: 6.25 mg/kg/injection, schedule: Q01DX009 (ip), vehicle: distilled water + Tween-80 97 % of control | dose: 12.5 mg/kg/injection, schedule: Q01DX009 (ip), vehicle: distilled water + Tween-80 101 % of control and 89 % of control and 95 % of control | dose: 25.0 mg/kg/injection, schedule: Q01DX009 (ip), vehicle: distilled water + Tween-80 93 % of control | dose: 100.0 mg/kg/injection, schedule: Q01DX009 (ip), vehicle: distilled water + Tween-80 101 % of control and 93 % of control | dose: 200.0 mg/kg/injection, schedule: Q01DX009 (ip), vehicle: distilled water + Tween-80 102 % of control and 108 % of control

COC(=O)NCP(=S)(CNC(=O)OC)CNC(=O)OC
inactive: [16] 105 % of control | [7] 96 % of control | [8] 95 % of control

CCn1c2nc(=O)[nH]c(=O)c-2cc2ccccc21
inactive: dose: 45.0 mg/kg/injection, schedule: Q01DX009 (ip), vehicle: saline with Tween-80 113 % of control | dose: 90.0 mg/kg/injection, schedule: Q01DX009 (ip), vehicle: saline with Tween-80 103 % of control | dose: 180.0 mg/kg/injection, schedule: Q01DX009 (ip), vehicle: saline with Tween-80 101 % of control

CC(=O)SCc1nc2ccccc2[nH]1
inactive: dose: 25.0 mg/kg/injection, schedule: Q01DX009 (ip), vehicle: saline with Tween-80 107 % of control | [1] 105 % of control | [2] 108 % of control

CC(C)(SSC(C)(C)C1NC(=O)NC1=O)C1NC(=O)NC1=O (configuration not stated)
inactive: dose: 6.25 mg/kg/injection, schedule: Q01DX005 (ip), vehicle: Klucel (hydroxypropylcellulose) (HPC) 102 % of control | dose: 12.5 mg/kg/injection, schedule: Q01DX005 (ip), vehicle: Klucel (hydroxypropylcellulose) (HPC) 99 % of control | dose: 25.0 mg/kg/injection, schedule: Q01DX005 (ip), vehicle: Klucel (hydroxypropylcellulose) (HPC) 98 % of control

COc1cc(C2c3cc(O)c(OC)cc3CC(C(N)=O)C2CO)ccc1O (configuration not stated)
inactive: [13] 100 % of control | [14] 100 % of control | [15] 98 % of control

CC1C/C=C\COC(=O)CC(C)(C)CC1=O (configuration not stated)
inactive: dose: 100.0 mg/kg/injection, schedule: Q04DX003 (ip), vehicle: saline 99 % of control | dose: 200.0 mg/kg/injection, schedule: Q04DX003 (ip), vehicle: saline 99 % of control | dose: 400.0 mg/kg/injection, schedule: Q04DX003 (ip), vehicle: saline 95 % of control
